# The source made the active and inactive calls. No cut-off for these calls is given here.
# Tests used:
# D-aspartate oxidase [1] = molecular target: T1, D-aspartate oxidase (Homo sapiens, UniProt Q99489); experiment: Inhibition of human recombinant DDO expressed in Escherichia coli BL21(DE3) using D-Asp and D-Ala assessed as 2-oxo acid production after 10 mins by colorimetric assay
# T1 sequence (Q99489 whole entry): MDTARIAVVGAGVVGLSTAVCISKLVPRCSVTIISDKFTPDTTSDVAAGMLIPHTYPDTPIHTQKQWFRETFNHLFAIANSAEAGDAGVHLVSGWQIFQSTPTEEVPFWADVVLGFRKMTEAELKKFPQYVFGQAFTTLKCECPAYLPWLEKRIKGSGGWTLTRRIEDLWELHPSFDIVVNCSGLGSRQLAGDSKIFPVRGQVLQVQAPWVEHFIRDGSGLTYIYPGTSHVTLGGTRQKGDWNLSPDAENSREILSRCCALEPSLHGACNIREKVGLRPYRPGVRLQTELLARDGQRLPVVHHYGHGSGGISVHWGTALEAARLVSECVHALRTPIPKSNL
# D-amino-acid oxidase = D-amino-acid oxidase (Homo sapiens, UniProt P14920); experiment: Inhibition of human recombinant DAO expressed in Escherichia coli BL21(DE3) using D-Asp and D-Ala assessed as 2-oxo acid production after 10 mins by colorimetric assay
# HeLa [2] = experiment: Effect on D-Asp level in human HeLa cells at 100 uM after 24 hrs by HPLC analysis; format: functional, cell-based
# D-aspartate oxidase [3] = molecular target: T2, D-aspartate oxidase (Rattus norvegicus, UniProt D3ZDM7); experiment: (§1) Inhibition of rat recombinant DDO using D-Asp
# T2 sequence (D3ZDM7 whole entry): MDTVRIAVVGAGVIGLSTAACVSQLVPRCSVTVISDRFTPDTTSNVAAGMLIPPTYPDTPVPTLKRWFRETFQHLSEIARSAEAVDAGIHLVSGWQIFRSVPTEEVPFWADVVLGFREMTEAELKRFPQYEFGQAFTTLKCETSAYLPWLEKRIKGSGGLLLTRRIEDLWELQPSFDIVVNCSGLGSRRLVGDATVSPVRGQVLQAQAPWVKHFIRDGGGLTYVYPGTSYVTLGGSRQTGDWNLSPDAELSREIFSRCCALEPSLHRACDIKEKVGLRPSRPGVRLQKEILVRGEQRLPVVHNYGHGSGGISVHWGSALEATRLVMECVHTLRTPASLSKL
# [4] = molecular target: T3, D-aspartate oxidase (Rattus norvegicus) (UniProt D3ZDM7); experiment: as §1
# T3 sequence (whole entry): T2 sequence (D3ZDM7 whole entry)
# HeLa [5] = experiment: Effect on L-Asp level in human HeLa cells at 100 uM after 24 hrs by HPLC analysis; format: functional, cell-based
# D-aspartate oxidase [6] = molecular target: T4, D-aspartate oxidase (Mus musculus, UniProt Q922Z0); experiment: Inhibition of mouse recombinant DDO using D-Asp
# T4 sequence (Q922Z0 whole entry): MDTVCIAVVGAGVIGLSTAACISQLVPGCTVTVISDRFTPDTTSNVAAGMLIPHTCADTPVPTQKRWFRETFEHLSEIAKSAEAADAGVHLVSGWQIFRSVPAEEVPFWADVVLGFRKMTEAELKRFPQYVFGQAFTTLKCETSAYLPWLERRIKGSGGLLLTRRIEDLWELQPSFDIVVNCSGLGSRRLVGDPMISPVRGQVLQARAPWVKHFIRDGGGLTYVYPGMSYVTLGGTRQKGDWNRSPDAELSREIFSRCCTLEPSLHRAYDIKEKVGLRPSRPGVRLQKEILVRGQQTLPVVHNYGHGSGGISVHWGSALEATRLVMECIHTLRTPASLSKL
# [7] = molecular target: T5, D-aspartate oxidase (Homo sapiens) (UniProt Q99489); conditions: HeLa, 1000 uM
# T5 sequence (whole entry): T1 sequence (Q99489 whole entry)
# HeLa [8] = experiment: Effect on D-Asp level in human HeLa cells at 1000 uM after 24 hrs by HPLC analysis; format: functional, cell-based
# HeLa [9] = experiment: Effect on L-Asp level in human HeLa cells at 1000 uM after 24 hrs by HPLC analysis; format: functional, cell-based
# D-aspartate oxidase [10] = molecular target: T1, D-aspartate oxidase
# [11] = molecular target: T5, D-aspartate oxidase (Homo sapiens); experiment: Competitive inhibition of human recombinant DDO expressed in Escherichia coli BL21(DE3) using D-Asp by Lineweaver-Burk plot analysis
# [12] = molecular target: T5, D-aspartate oxidase (Homo sapiens); conditions: HeLa, 1000 uM; remark: listed apart in the source
# [13] = molecular target: T5, D-aspartate oxidase (Homo sapiens); conditions: HeLa, 250 uM
# HeLa [14] = experiment: Effect on L-Asp level in human HeLa cells at 250 uM after 24 hrs by HPLC analysis; format: functional, cell-based
# [15] = molecular target: T5, D-aspartate oxidase (Homo sapiens); conditions: HeLa, 250 uM; remark: listed apart in the source
# [16] = molecular target: T5, D-aspartate oxidase (Homo sapiens); conditions: HeLa, 250 uM; remark: listed apart in the source
# D-amino-acid oxidase, sequence (P14920 whole entry): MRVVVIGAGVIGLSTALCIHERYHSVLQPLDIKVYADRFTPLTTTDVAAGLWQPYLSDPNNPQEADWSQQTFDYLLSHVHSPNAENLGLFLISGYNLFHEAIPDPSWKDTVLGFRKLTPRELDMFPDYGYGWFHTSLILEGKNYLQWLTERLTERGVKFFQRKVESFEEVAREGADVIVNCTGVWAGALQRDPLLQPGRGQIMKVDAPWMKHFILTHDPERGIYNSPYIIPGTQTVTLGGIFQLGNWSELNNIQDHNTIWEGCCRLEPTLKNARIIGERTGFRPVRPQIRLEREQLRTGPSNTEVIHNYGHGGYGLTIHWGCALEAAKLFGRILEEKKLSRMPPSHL
smiles,measurement,setting,value
O=C(O)c1cncc(Cl)c1,IC50,D-aspartate oxidase [1],> 10000 µM
O=C(O)c1cc(Cl)ccc1O [5-CHLOROSALICYLIC ACID],IC50,D-amino-acid oxidase,3670 µM
same,IC50,D-aspartate oxidase [1],> 10000 µM
O=C(O)c1cc(F)ccc1O,IC50,D-amino-acid oxidase,1050 µM
same,IC50,D-aspartate oxidase [1],> 10000 µM
O=C(O)c1cncc(C(F)(F)F)c1,IC50,D-aspartate oxidase [1],> 10000 µM
Cc1ccc(C(=O)O)c(O)n1,IC50,D-amino-acid oxidase,> 10000 µM
same,IC50,D-aspartate oxidase [1],> 10000 µM
O=C(O)c1ccccc1 [BENZOIC ACID],IC50,D-amino-acid oxidase,134 µM
same,IC50,D-aspartate oxidase [1],> 10000 µM
Nc1ccc(C(=O)O)nc1,IC50,D-amino-acid oxidase,> 10000 µM
same,IC50,D-aspartate oxidase [1],> 10000 µM
Nc1ccnc(C(=O)O)c1,IC50,D-amino-acid oxidase,> 100 µM
same,IC50,D-aspartate oxidase [1],> 100 µM
CN(C)c1cncc(C(=O)O)c1,IC50,D-aspartate oxidase [1],> 1000 µM
Nc1ccc(C(=O)O)cn1,IC50,D-amino-acid oxidase,> 2500 µM
same,IC50,D-aspartate oxidase [1],2360 µM
Cc1cncc(C(=O)O)c1,IC50,D-amino-acid oxidase,1500 µM
same,IC50,D-aspartate oxidase [1],5470 µM
O=C(O)c1cn2cnnc2nc1O,Activity,HeLa [2],inactive
same,IC50,D-amino-acid oxidase,> 500 µM
same,Ki,D-aspartate oxidase [3],65.9 µM
same,inhibition,[4],Dose-dependent effect
same,Activity,HeLa [5],inactive
same,Ki,D-aspartate oxidase [6],32.6 µM
COc1cncc(C(=O)O)c1,IC50,D-aspartate oxidase [1],> 10000 µM
Nc1cccc(C(=O)O)c1 [3-AMINOBENZOIC ACID],IC50,D-amino-acid oxidase,392 µM
same,IC50,D-aspartate oxidase [1],> 10000 µM
Nc1ncccc1C(=O)O,IC50,D-amino-acid oxidase,> 1000 µM
same,IC50,D-aspartate oxidase [1],> 1000 µM
O=C(O)c1ncccc1O,IC50,D-amino-acid oxidase,2480 µM
same,IC50,D-aspartate oxidase [1],> 10000 µM
Cc1cc(C(=O)O)c(N)s1,IC50,D-amino-acid oxidase,1440 µM
same,IC50,D-aspartate oxidase [1],4250 µM
O=C(O)c1cncc(O)c1,IC50,D-amino-acid oxidase,> 10000 µM
same,IC50,D-aspartate oxidase [1],3350 µM
NC(=O)c1csc(C(=O)O)c1,IC50,D-amino-acid oxidase,347 µM
same,IC50,D-aspartate oxidase [1],> 5000 µM
Nc1ccc(Cl)cc1C(=O)O,IC50,D-amino-acid oxidase,3930 µM
same,IC50,D-aspartate oxidase [1],> 10000 µM
Nc1cccc(C(=O)O)n1,IC50,D-amino-acid oxidase,> 100 µM
same,IC50,D-aspartate oxidase [1],> 100 µM
O=C(O)CC(=O)O [MALONIC ACID],IC50,D-amino-acid oxidase,> 10000 µM
same,inhibition,[7],inactive
same,Activity,HeLa [8],inactive
same,Activity,HeLa [9],inactive
same,IC50,D-aspartate oxidase [1],879 µM
same,Ki,D-aspartate oxidase [10],153 µM
same,inhibition,[11],Active
same,inhibition,[12],inactive
same,Ki,D-aspartate oxidase [3],1560 µM
same,Ki,D-aspartate oxidase [6],1220 µM
O=C(O)c1cc2ccccc2n1O,IC50,D-amino-acid oxidase,1.34 µM
same,IC50,D-aspartate oxidase [1],> 1000 µM
O=C(O)c1cccnc1 [NIACIN],IC50,D-amino-acid oxidase,1130 µM
same,IC50,D-aspartate oxidase [1],2780 µM
Nc1cc(C(=O)O)ccn1,IC50,D-amino-acid oxidase,> 100 µM
same,IC50,D-aspartate oxidase [1],> 100 µM
Nc1ccncc1C(=O)O,IC50,D-amino-acid oxidase,> 100 µM
same,IC50,D-aspartate oxidase [1],> 100 µM
O=C(O)c1cncc(S(=O)(=O)O)c1,IC50,D-aspartate oxidase [1],> 10000 µM
CNc1cncc(C(=O)O)c1,IC50,D-amino-acid oxidase,> 10000 µM
same,IC50,D-aspartate oxidase [1],3540 µM
O=C(O)c1cncc(F)c1 [5-FLUORONICOTINIC ACID],IC50,D-aspartate oxidase [1],> 10000 µM
Nc1cncc(C(=O)O)c1,inhibition,[13],Active
same,IC50,D-amino-acid oxidase,> 2500 µM
same,Activity,HeLa [14],inactive
same,IC50,D-aspartate oxidase [1],21.9 µM
same,Ki,D-aspartate oxidase [10],3.8 µM
same,inhibition,[11],Active
same,Ki,D-aspartate oxidase [3],5.89 µM
same,inhibition,[4],Dose-dependent effect
same,inhibition,[15],inactive
same,Ki,D-aspartate oxidase [6],8.69 µM
same,inhibition,[16],Active
O=C(O)c1cncc(C(=O)O)c1,IC50,D-aspartate oxidase [1],> 10000 µM
O=C(O)c1cncc(Br)c1,IC50,D-aspartate oxidase [1],> 10000 µM
Nc1cccnc1C(=O)O,IC50,D-amino-acid oxidase,> 1000 µM
same,IC50,D-aspartate oxidase [1],> 1000 µM
O=C(O)c1cncc([N+](=O)[O-])c1,IC50,D-aspartate oxidase [1],> 10000 µM
O=C(O)c1cncc(-c2ccccc2)c1,IC50,D-aspartate oxidase [1],> 5000 µM
Nc1cccnc1,IC50,D-amino-acid oxidase,> 10000 µM
same,IC50,D-aspartate oxidase [1],> 10000 µM
Nc1cnccc1C(=O)O,IC50,D-amino-acid oxidase,> 5000 µM
same,IC50,D-aspartate oxidase [1],> 5000 µM

# Source: ChEMBL document CHEMBL3616389, “Identification of Novel D-Aspartate Oxidase Inhibitors by in Silico Screening and Their Functional and Structural Characterization in Vitro” (J Med Chem, 2015)
